Reference: ChEMBL document CHEMBL1649270, “ST-246 inhibits in vivo poxvirus dissemination, virus shedding, and systemic disease manifestation” (2009)
Calls of active or inactive are those of the source. The calls are words filed in the database; no cut-off is given here.

Legend:
[1] = tested on: Vaccinia virus WR; assay: Antiviral activity against Vaccinia virus WR ATCC VR-1354 infected through dermal scarification route in BALB/c mouse assessed as reduction of viral load in brain at 100 mg/kg, po qd measured after 14 days postinfection by RT-PCR analysis relative to control; format: functional, organism-based; design: dose 100 mg/kg
[2] = tested on: Vaccinia virus WR; assay: Antiviral activity against Vaccinia virus WR ATCC VR-1354 infected through intravenous route in BALB/c mouse assessed as reduction of viral load in brain at 100 mg/kg, po qd measured after 14 days postinfection by RT-PCR analysis relative to control; format: functional, organism-based; design: dose 100 mg/kg
[3] = tested on: Vaccinia virus WR; assay: Antiviral activity against Vaccinia virus WR ATCC VR-1354 infected through intraperitoneal route in BALB/c mouse assessed as reduction of viral load in liver at 100 mg/kg, po qd measured after 3 days postinfection by RT-PCR analysis relative to control; format: functional, organism-based; design: dose 100 mg/kg
[4] = tested on: Vaccinia virus WR; assay: Antiviral activity against Vaccinia virus WR ATCC VR-1354 infected through intraperitoneal route in BALB/c mouse assessed as reduction of viral load in spleen at 100 mg/kg, po qd measured after 5 days postinfection by RT-PCR analysis relative to control; format: functional, organism-based; design: dose 100 mg/kg
[5] = tested on: Vaccinia virus WR; assay: Antiviral activity against Vaccinia virus WR ATCC VR-1354 infected through intraperitoneal route in BALB/c mouse assessed as reduction of viral load in liver at 100 mg/kg, po qd measured after 5 days postinfection by RT-PCR analysis relative to control; format: functional, organism-based; design: dose 100 mg/kg
[6] = tested on: Vaccinia virus WR; assay: Antiviral activity against Vaccinia virus WR ATCC VR-1354 infected through dermal scarification route in ACAM2000 vaccinated BALB/c mouse assessed as reduction of swab virus titers at 100 mg/kg, po qd measured after 7 days postinfection by RT-PCR analysis relative to control; format: functional
[7] = tested on: Vaccinia virus WR; assay: Antiviral activity against Vaccinia virus WR ATCC VR-1354 infected through percutaneous route in BALB/c mouse assessed as protection against hypothermia at 100 mg/kg, po qd for 1 to 3 days measured on day 2; format: functional, organism-based; design: dose 100 mg/kg
[8] = tested on: Vaccinia virus WR; assay: Antiviral activity against Vaccinia virus WR ATCC VR-1354 infected through percutaneous route in BALB/c mouse assessed as protection against hypothermia at 100 mg/kg, po qd for 1 to 3 days measured on day 6; format: functional, organism-based; design: dose 100 mg/kg
[9] = tested on: Vaccinia virus WR; assay: Antiviral activity against Vaccinia virus WR ATCC VR-1354 infected through percutaneous route in BALB/c mouse assessed as protection against virus-induced systemic disease symptoms at 100 mg/kg, po qd measured after 6 days postinfection; format: functional, organism-based; design: dose 100 mg/kg
[10] = tested on: Vaccinia virus WR; assay: Antiviral activity against Vaccinia virus WR ATCC VR-1354 infected through percutaneous route in BALB/c mouse assessed as inhibition of virus dissemination in spleen at 100 mg/kg, po qd for 1 day by RT-PCR analysis relative to control; format: functional
[11] = tested on: Vaccinia virus WR; assay: Antiviral activity against Vaccinia virus WR ATCC VR-1354 infected through percutaneous route in BALB/c mouse assessed as inhibition of virus dissemination in liver at 100 mg/kg, po qd for 1 day by RT-PCR analysis; format: functional, organism-based; design: dose 100 mg/kg
[12] = tested on: Vaccinia virus WR; assay: Antiviral activity against Vaccinia virus WR ATCC VR-1354 infected through percutaneous route in BALB/c mouse assessed as inhibition of virus dissemination in brain at 100 mg/kg, po qd for 1 day by RT-PCR analysis; format: functional, organism-based; design: dose 100 mg/kg
[13] = tested on: Vaccinia virus WR; assay: Antiviral activity against Vaccinia virus WR ATCC VR-1354 infected through percutaneous route in BALB/c mouse assessed as inhibition of virus dissemination in blood at 100 mg/kg, po qd for 3 to 14 days by RT-PCR analysis; format: functional, organism-based; design: dose 100 mg/kg
[14] = tested on: Vaccinia virus WR; assay: Antiviral activity against Vaccinia virus WR ATCC VR-1354 infected through percutaneous route in BALB/c mouse assessed as inhibition of virus dissemination in brain at 100 mg/kg, po qd for 3 to 14 days by RT-PCR analysis; format: functional, organism-based; design: dose 100 mg/kg
[15] = tested on: Vaccinia virus WR; assay: Antiviral activity against Vaccinia virus WR ATCC VR-1354 infected through percutaneous route in BALB/c mouse assessed as protection against virus-induced death at 100 mg/kg, po qd administered 4 days after postinfection measured on day 6; format: functional, organism-based; design: dose 100 mg/kg
[16] = tested on: Vaccinia virus WR; assay: Antiviral activity against Vaccinia virus WR ATCC VR-1354 infected through intraperitoneal route in BALB/c mouse assessed as protection against virus-induced systemic disease symptoms at 100 mg/kg, po qd measured after 9 days postinfection; format: functional, organism-based; design: dose 100 mg/kg
[17] = tested on: Vaccinia virus WR; assay: Antiviral activity against Vaccinia virus WR ATCC VR-1354 infected through dermal scarification route in BALB/c mouse assessed as protection against virus-induced conjunctivitis in mouse eyes at 100 mg/kg, po qd measured after 6 days postinfection; format: functional, organism-based; design: dose 100 mg/kg
[18] = tested on: Vaccinia virus WR; assay: Antiviral activity against Vaccinia virus WR ATCC VR-1354 infected through intraperitoneal route in BALB/c mouse assessed as protection against virus-induced conjunctivitis in mouse eyes at 100 mg/kg, po qd measured after 6 days postinfection; format: functional, organism-based; design: dose 100 mg/kg
[19] = tested on: Vaccinia virus WR; assay: Antiviral activity against Vaccinia virus WR ATCC VR-1354 infected through percutaneous route in BALB/c mouse assessed as reduction of viral load in spleen at 100 mg/kg, po qd measured after 3 days postinfection by RT-PCR analysis relative to control; format: functional
[20] = tested on: Vaccinia virus WR; assay: Antiviral activity against Vaccinia virus WR ATCC VR-1354 infected through percutaneous route in BALB/c mouse assessed as reduction of viral load in liver at 100 mg/kg, po qd measured after 3 days postinfection by RT-PCR analysis relative to control; format: functional
[21] = tested on: Vaccinia virus WR; assay: Antiviral activity against Vaccinia virus WR ATCC VR-1354 infected through percutaneous route in BALB/c mouse assessed as reduction of viral load in blood at 100 mg/kg, po qd measured after 5 days postinfection by RT-PCR analysis relative to control; format: functional
[22] = tested on: Vaccinia virus WR; assay: Antiviral activity against Vaccinia virus WR ATCC VR-1354 infected through percutaneous route in BALB/c mouse assessed as reduction of viral load in spleen at 100 mg/kg, po qd measured after 5 days postinfection by RT-PCR analysis relative to control; format: functional
[23] = tested on: Vaccinia virus WR; assay: Antiviral activity against Vaccinia virus WR ATCC VR-1354 infected through percutaneous route in BALB/c mouse assessed as reduction of viral load in brain at 100 mg/kg, po qd measured after 5 days postinfection by RT-PCR analysis relative to control; format: functional
[24] = tested on: Vaccinia virus WR; assay: Antiviral activity against Vaccinia virus WR ATCC VR-1354 infected through percutaneous route in BALB/c mouse assessed as reduction of viral load in brain at 100 mg/kg, po qd measured after 7 days postinfection by RT-PCR analysis relative to control; format: functional, organism-based; design: dose 100 mg/kg
[25] = tested on: Vaccinia virus WR; assay: Antiviral activity against Vaccinia virus WR ATCC VR-1354 infected through dermal scarification route in BALB/c mouse assessed as reduction of viral load in brain at 100 mg/kg, po qd measured after 5 days postinfection by RT-PCR analysis relative to control; format: functional
[26] = tested on: Vaccinia virus WR; assay: Antiviral activity against Vaccinia virus WR ATCC VR-1354 infected through dermal scarification route in BALB/c mouse assessed as reduction of viral load in spleen at 100 mg/kg, po qd measured after 14 days postinfection by RT-PCR analysis relative to control; format: functional, organism-based; design: dose 100 mg/kg

O=C(NN1C(=O)[C@@H]2[C@@H]3C=C[C@@H]([C@H]4C[C@@H]34)[C@@H]2C1=O)c1ccc(C(F)(F)F)cc1 [TECOVIRIMAT]
Activity [1]: Active | Activity [2]: Active | Activity [3]: inactive | Activity [4]: Active | Activity [5]: Active | fold change (FC) [6]: 53 | Activity [7]: inactive | Activity [8]: Active | Activity [9]: Active | fold change (FC) [10]: 17 | Activity [11]: inactive | Activity [12]: inactive | Activity [13]: Active | Activity [14]: Active | Activity [15]: inactive | Activity [16]: Active | Activity [17]: Active | Activity [18]: Active | fold change (FC) [19]: 300 | fold change (FC) [20]: 45 | fold change (FC) [21]: 90 | fold change (FC) [22]: 44000 | fold change (FC) [23]: 13 | Activity [24]: Active | fold change (FC) [25]: 3 | Activity [26]: Active
